Patent US9745266B2 (THE REGENTS OF THE UNIVERSITY OF COLORADO, A BODY CORPORATE, priority 2013, dated 2017)
≈ marks a conversion by molar mass, not a printed value. Like-named read-outs stand apart in the source and are kept apart here.

Legend:
MRSA ATCC BAA-44 [1] = experiment: Minimum resensitizing concentration (MRC), modified broth microdilution; format: cell-based, S. aureus
Method: (§1) For these activity tests, AMOXICILLIN® was used in combination with clavulanic acid (a.k.a., AUGMENTIN®), CEFAZOLIN®, and MEROPENEM® (an ultra-broad-spectrum carbapenem). […] To assess activity of each analog as a resistance-modifying agent (RMA), a modified broth microdilution assay was used. Briefly, this involves incubating MRSA with 2-fold serial dilutions of a compound in the presence of each individual antibiotic at its Clinical Laboratory Standards Institutes (CLSI)-defined sensitive concentration. For AMOXICILLIN®/clavulanic acid, this concentration is 4/2 μg/ml (8-fold potentiation), for CEFAZOLIN®, 8 μg/ml (16-fold potentiation) and for MEROPENEM®, 4 μg/ml (4-fold potentiation). Following overnight incubation, plates were examined for bacterial growth, or lack thereof. Compounds were tested at concentrations ranging from 0.5-32 μg/ml. […] The half growth inhibitory concentration (GI50) of each analog was determined by fitting the data using KaleidaGraph (v4.1.1, Synergy Software).
(§2) A modified broth microdilution assay was employed by incubating MRSA (ATCC: BAA-44) with Of1 in 2-fold series dilution in the presence of individual antibiotics at the highest sensitive concentration at 37° C. overnight. […] The MRC values were also determined for another three MRSA strains. […] Furthermore, the mammalian toxicity of Of1 was evaluated using human liver hepatocellular carcinoma HepG2 cell line in CellTiter Glo™ mammalian viability assay (Promega).
(§3) MRC screens were performed as follows: antibiotic MIC values where S. aureus is considered susceptible were determined from the CLSI handbook supplement. Analogs of Of1 were diluted to 5 mg/ml in DMSO. Antibiotic was prepared at twice the intended final concentration in Mueller Hinton Broth (MHB). For amoxicillin/clavulanic acid, the initial concentration was 8/4 μg/ml, for meropenem 8 μg/ml and for cefazolin 16 μg/ml. 50 μl of the antibiotic containing media was added to each well of 96 well plates and 100 μl was added to the top row. 1.28 μl of 5 mg/ml alkaloid solution was added to the top row of each plate to afford a concentration of 64 μg/ml in the top row of each plate and two fold serial dilutions were performed down the columns. Once the plates were prepared, a day culture of MRSA was diluted to OD600 0.002 and 50 μl was added to each well. The final concentration of MRSA was OD600 0.001, the final concentration of amoxicillin/clavulanic acid was 4/2 μg/ml, the final concentration of meropenem was 4 μg/ml the final concentration of cefazolin was 8 μg/ml, and the highest concentration of Of1 analog tested was 32 μg/ml. Plates were incubated overnight at 37° C. with shaking. The MRC value was determined as the concentration of Of1 analog in the presence of antibiotic at which there was no observable overnight growth.

MRSA ATCC 33592 [2] = experiment: as above; format: cell-based, S. aureus
Method: as §1, §2, §3

[3] = Mammalian toxicity, CellTiter Glo viability assay; format: cell-based, human; settings: human, HepG2 cells
Method: (§4) A modified broth microdilution assay was employed by incubating MRSA (ATCC: BAA-44) with Of1 in 2-fold series dilution in the presence of individual antibiotics at the highest sensitive concentration at 37° C. overnight. […] This is probably due to both the different sensitive concentration defined for each antibiotic and the different level of resistance of MRSA to various antibiotics. The MRC values were also determined for another three MRSA strains. The strain 33592 (ATCC) behaves similarly to BAA-44, and their MRCs for the three antibiotics tested are all 4 μg/mL. […] ATCC 700789 is particularly interesting, because it is also known as a vancomycin intermediate resistant S. aureus (VISA). […] Furthermore, the mammalian toxicity of Of1 was evaluated using human liver hepatocellular carcinoma HepG2 cell line in CellTiter Glo™ mammalian viability assay (Promega).

HepG2 cells = experiment: Mammalian toxicity, CellTiter Glo viability assay; format: cell-based, human; settings: at 4 μg/mL
Method: as §4

[4] = test system: ATCC 700789 (vancomycin intermediate resistant S. aureus, VISA); experiment: Minimum resensitizing concentration (MRC); format: cell-based
Method: as §4

HeLa cells = experiment: Mammalian cytotoxicity, CellTiter-Glo viability assay; format: cell-based, human; settings: 24 hours
Method: To evaluate the cytotoxicity of Of1 in mammalian cells, a cell viability assay was carried out using CellTiter-Glo luminescent cell viability assay kit (Promega). Human cervixcal adenocarcinoma HeLa cells were seeded on white, cell-culture treated 96-well plates (Corning: 3917) with Dulbecco's modified Eagle's medium (DMEM) supplemented with 10% fetal calf serum (FCS), 1% penicillin/streptomycin, at the densities of 20,000 cells/well. The medium volume for each well was 100 μL. Cells were incubated at 37° C. in 5% CO2/95% air for 16 hours. The medium was removed from each well and replaced with 99 μL of warmed fresh medium. To each well, 1 μL of Of1 analog was added in DMSO to final concentrations of 0.5-32 μg/mL. Each series was performed in triplicate. After incubation at 37° C. for another 24 hours, the plates were equilibrated to room temperature for 30 minutes. 100 μL of CellTiter-Glo reagent (Promega) was added to each well and mixed for 2 minutes on an orbital shaker. The plate was incubated at room temperature for another 10 minutes to stabilize luminescent signal. The luminescence of each sample was recorded in an Envision Multilabel Plate Reader (Perkin Elmer).

MRSA ATCC BAA-1683 = experiment: Minimum resensitizing concentration (MRC); format: cell-based, S. aureus
Method: as §4

MRSA ATCC BAA-44 [5] = experiment: MIC, CLSI broth microdilution; format: cell-based, S. aureus; settings: MRSA ATCC BAA-44, compound alone
[6] = test system: MSSA strain (ATCC: 25923); experiment: Potentiation of β-lactam antibiotics by 20 μM Of1 in MSSA; format: cell-based, S. aureus; settings: MSSA ATCC 25923
Method: Taken together, it appears that Of1 is a resistance-modifying agent specifically for β-lactam antibiotics.
(§5) The MRSA strain ATCC BAA-44 and the methicillin-sensitive S. aureus (MSSA) strain ATCC 25923 were used to determine the MIC values of various antimicrobial compounds in the presence of 20 μM Of1. The experiment was conducted similarly to the CLSI MIC determination described previously; however, MHB was supplemented with 40 μM Of1 prior to set up and inoculation. The final concentration of Of1 after inoculation with BAA-44 was 20 μM.

MRSA ATCC BAA-44 [7] = experiment: MIC in the presence of 20 μM Of1 / alkaloid; format: cell-based, S. aureus
Method: (§6) Indoline alkaloid compounds were then screened for the ability to potentiate the activity of methicillin against MRSA. A multi-drug resistant MRSA strain (ATCC: BAA-44) was selected for the initial screening. […] To each well, 20 μM of each individual indoline alkaloid was added and the plates were incubated at 37° C. for 16 hrs.
as §5

[8] = test system: methicillin-sensitive S. aureus (MSSA, ATCC: 25923); experiment: MIC, CLSI broth microdilution; format: cell-based; settings: Staphylococcus aureus; MSSA ATCC 25923, compound alone
Method: as §6
All antimicrobial compounds were purchased from Sigma-Aldrich. The growth media used for all MIC experiments was Mueller Hinton Broth (MHB) purchased from HIMEDIA through VWR (cat: 95039-356). The inoculum was prepared by diluting a bacterial day culture (OD600 0.15-0.4) to OD600 0.002. This dilution was further diluted two fold when added to 96 well microplates (USA Scientific CytoOne 96-well TC plate, cat: CC7682-7596) for a final inoculum concentration of OD600 0.001. All plates were incubated at 37° C. with shaking for 18 hours (overnight) before results were interpreted.

MRSA ATCC 33592 [9] = experiment: MIC, broth microdilution; format: cell-based, S. aureus; settings: Staphylococcus aureus
Method: as §1, with “Activities listed in the table show the ability of the compounds of the invention to resensitize MRSA to a collection of β-lactam antibiotics. For these” for “For these”, “Synergy Software). Compounds 1a-1 are synthesized as shown in Scheme 1 below.” for “Synergy Software).”
The minimal inhibitory concentrations (MICs) of active Of1 analogs were determined by the broth microdilution method detailed in the Clinical and Laboratory Standards Institute handbook. […]

[10] = Staphylococcus aureus, read-out: MIC

2-(6-Bromo-4-methylidene-2,3,4,4a,9,9a-hexahydro-1H-carbazol-4a-yl)-N-(4-chlorobenzenesulfonyl)-S-(4-chlorophenyl)ethane-1-sulfonamido [Cpd 1h]
MRC amox/clav (MRSA ATCC BAA-44 [1]; MRSA ATCC BAA-44, amoxicillin/clavulanic acid at 4/2 μg/ml): >32 µg/mL
MRC cefazolin (MRSA ATCC BAA-44 [1]; MRSA ATCC BAA-44, cefazolin at 8 μg/ml): >32 µg/mL
MRC methicillin (MRSA ATCC BAA-44 [1]; MRSA ATCC BAA-44, in presence of methicillin): >32 µg/mL
MRC meropenem (MRSA ATCC 33592 [2]; MRSA ATCC 33592, meropenem at 4 μg/ml): >32 µg/mL

C=C1CCC[C@@H]2Nc3ccc(Br)cc3[C@]12CCNS(=O)(=O)c1ccc(Cl)cc1 (stereo in doubt) [Of1, N-(2-(6-Bromo-4-methylene-2,3,4,4a,9,9a-hexahydro-1H-carbazol-4a-yl)ethyl)-4-chlorobenzenesulfonamide]
GI50 [3]: ~8.9 µg/mL (≈ 18.5 µM)
cytotoxic effect against HepG2 cells (HepG2 cells): no observable cytotoxic effect
MRC of Of1, oxacillin ([4]; ATCC 700789): >64 µg/mL
MRC of Of1, amoxicillin/clavulanate ([4]; ATCC 700789 (VISA)): 4 µg/mL
GI50 (HeLa cells): 17.1 µg/mL (≈ 35.5 µM)
MRC of Of1, oxacillin (MRSA ATCC BAA-44 [1]; ATCC BAA-44, oxacillin at highest sensitive concentration): 2 µg/mL
MRC of Of1, amoxicillin/clavulanate (MRSA ATCC 33592 [2]; ATCC 33592): 4 µg/mL
MRC of Of1, cefazolin (MRSA ATCC 33592 [2]; ATCC 33592): 4 µg/mL
MRC of Of1, oxacillin (MRSA ATCC 33592 [2]; ATCC 33592, oxacillin at highest sensitive concentration): 4 µg/mL
MRC of Of1, amoxicillin/clavulanate (MRSA ATCC BAA-1683): 4 µg/mL
MRC of Of1, oxacillin (MRSA ATCC BAA-1683; 32 μg/mL highest concentration tested): >32 µg/mL
MIC (MRSA ATCC BAA-44 [5]): > 128 µg/mL
MIC (MRSA ATCC BAA-44 [5]; [10]): > 128 µg/mL
potentiation of β-lactam antibiotics in MSSA [6]: does not show any significant potentiation effect
fold potentiation of methicillin (MRSA ATCC BAA-44 [7]; 20 μM (ca. 10 μg/mL) Of1, MRSA BAA-44): 16 fold
fold potentiation of all β-lactam antibiotics (MRSA ATCC BAA-44 [7]; 20 μM Of1, MRSA BAA-44): 8-128 fold
fold potentiation of meropenem (MRSA ATCC BAA-44 [7]; 20 μM Of1, MRSA BAA-44): 16 fold
MIC of methicillin in media supplemented with 20 μM alkaloid (MRSA ATCC BAA-44 [7]; MRSA ATCC BAA-44, methicillin MIC alone 128): 8 µg/mL
MIC [8]: > 128 µg/mL

C=C1CCC[C@@H]2Nc3c(F)cc(Br)cc3[C@]12CCN (stereo in doubt) [Cpd 11b, 2-(6-Bromo-8-fluoro-4-methylidene-2,3,4,4a,9,9a-hexahydro-1H-carbazol-4a-yl)ethan-1-amine]
GI50 (HeLa cells): 16.2 µg/mL (≈ 49.8 µM)

C[C@@H](O)[C@H]1C(=O)N2C(C(=O)O)=C(S[C@@H]3CN[C@H](C(=O)N(C)C)C3)[C@H](C)[C@H]12 [meropenem]
MIC (MRSA ATCC 33592 [9]): 16 µg/mL
MIC (MRSA ATCC BAA-44 [5]; [10]): 4 µg/mL (≈ 10.4 µM)
fold of potentiation (MRSA ATCC BAA-44 [7]; MIC / MIC (+20 μM Of1), MRSA ATCC BAA-44): 16
MIC (+Of1) (MRSA ATCC BAA-44 [7]; MRSA ATCC BAA-44, in the presence of 20 μM Of1): 0.25 µg/mL
